# Results as given in patent US6207677A, “Piperidine derivatives having anxiolytic effect” (H. Lundbeck A/S, priority 1991, dated 2001).
# Target: sigma receptors
# Assay: Inhibition of 3H-DTG binding to sigma receptors in rat brain in vitro
# Settings: 2 nM 3H-DTG, rat brain without cerebellum, 25° C., 20 min
# Method: INHIBITION OF 3H-DTG BINDING TO SIGMA RECEPTORS IN RAT BRAIN IN VITRO
# By this method the inhibition by drugs of the binding of 2 nM ^3 H-DTG (1,3,di-o-tolyl guanidine) to sigma receptors in homogenates or membranes from rat brain without cerebellum is determined in vitro as modified from Weber et al. Proc. Natl. Acad. Sci. 1986, 83,8784.
# Homogenate: Rats (150-250 g) are decapitated and the brains (without cerebellum) quickly removed and placed on ice, weighed and homogenized in 100 vol ice-cold (0° C.) 50 mM Tris-buffer (pH 7.7) in an ethanol rinsed glass/teflon homogenizer at 0° C. and kept on ice until use.
# P2-membranes: Brains are homogenized in 10 vol 0.32 M sucrose in an ethanol rinsed glass/teflon homogenizer with 10 strokes up and down. The homogenate is centrifuged for 10 min at 900×gm at 4° C. The supernatant is decanted and centrifuged for 20 min at 50,000 gm at 4° C. The resulting pellet is resuspended in 10 vol ice-cold […] Tris-buffer (pH 7.7) and incubated for 30 min. at 37° C. The membrane suspension is then centrifuged for further 20 min. at 50,000 gm at 4° C. The pellet is resuspended in 50 vol. of ice-cold Tris-buffer and used immediately.
# 0.5 ml 50 mM Tris-buffer (pH 7.7), 0.25 ml displacer (6×100 μM DTG, 6× [test compound], or Tris-buffer), and 0.25 ml 6×2 nM. ^3 H-DTG are mixed into 5 ml s plastic test tubes and kept at 4° C. until use. The binding reaction is initiated by mixing 0.5 ml tissue suspension into this solution and incubate at 25° C. for 20 min. Glass fiber filters (Whatman GF/B) are placed on the filter machine which is then closed tightly. Just before filtration vacuum is applied, and the filters washed with 0.1% PEI solution from a spray bottle followed by one wash with Tris-buffer.
# The binding reaction is stopped by filtration of the assay mixture at reduced pressure (750 mbar) followed by further 3 washes with 5 ml ice-cold Tris-buffer. The filters are then placed in counting vials and 4 ml scintillation solution added. The vials are counted in a Beckmann scintillation counter.
# 50 mM Tris-buffer pH 7.7: 7.38 g Trizma--7.7 plus distilled H2 O ad 1 liter. 100 ml 10% polyethylenimine (PEI): 100 ml dest. H2 O is added to approx. 20 g 50% PEI which is solubilized by stirring and heating. Diluted (1+99) before use. 6×2 nM ^3 H-DTG: The exact volume depends on the actual concentration of the batch, but is made as close as possible to 12 nM. The containers for the radioactive solution is rinsed in 96% ethanol before use.
# ^3 H-DTG was obtained from NEN Research Products, Du Pont Denmark. Specific activity 62.3 Ci/mmol.
# The known sigma receptor ligands BMY 14802 and rimcazole were included in the test for comparison purposes.
row,Compound,IC50 [nM]
1,"1'-[3-(2,3-Dihydro-5-fluoro-benzofuran-3-yl)-1-butyl]-spiro[isobenzofuran-1(3H),4'-piperidine] [Compound 11b]",0.63
2,"CCCCCN1CCC2(CC1)OCc1ccccc12 [Compound 1b, 1'-Pentylspiro[isobenzofuran-1(3H),4'-piperidine]]",3.7
3,"c1ccc(CCCCN2CCC3(CC2)OCc2ccccc23)cc1 [Compound 2a, 1'-(4-Phenyl-1-butyl)spiro[isobenzofuran-1(3H),4'-piperidine]]",0.25
4,Fc1ccc2[nH]cc(CCCCN3CCC4(CC3)OCc3ccccc34)c2c1 [Compound 2aa],0.3
5,"c1ccc2c(c1)COC21CCN(CCCCC2CCCCC2)CC1 [Compound 2b, 1'-(4-Cyclohexyl-1-butyl)spiro[isobenzofuran-1(3H), 4'-piperidine)]",0.07
6,"Cn1cc(CCCCN2CCC3(CC2)OCc2ccccc23)c2ccccc21 [Compound 2bb, 1'-[4-(1-Methyl-3-indolyl)-1-butyl]-spiro[isobenzofuran-1(3H),4'-piperidine]]",0.3
7,"c1ccc(CCCCN2CCC3(CCc4ccccc43)CC2)cc1 [Compound 2c, 2,3-Dihydro-1'-(4-phenyl-1-butyl)spiro[1H-indene-1,4'-piperidine]]",0.51
8,"c1ccc(C2CCN(CCCCc3c[nH]c4ccccc34)CC2)cc1 [Compound 2cc, 3-[4-(4-Phenyl-1-piperidyl)-1-butyl]indole]",1.1
9,"c1ccc(CCCCN2CCC3(CC2)SCc2ccccc23)cc1 [Compound 2d, 1'-(4-Phenyl-1-butyl)spiro[benzo[c]thiophene-1(3H),4'-piperidine]]",0.77
10,"Clc1ccc(C2CCN(CCCCc3c[nH]c4ccccc34)CC2)cc1Cl [Compound 2dd, 3-[4-(4-(3,4-Dichlorophenyl)-1-piperidyl)-1-butyl]indole]",1.7
11,"c1ccc(CCCCN2CCC3(CCCc4ccccc43)CC2)cc1 [Compound 2e, 3,4-Dihydro-1'-(4-phenyl-1-butyl)spiro[naphtalene-1(2H),4'-piperidine]]",1.2
12,"Fc1ccc(C2CCN(CCCCc3c[nH]c4cc(Cl)c(Cl)cc34)CC2)cc1 [Compound 2ee, 5,6-Dichloro-3-[4-(4-(4-fluorophenyl)-1-piperidyl)-1-butyl]-indole]",1
13,c1ccc(CCCCN2CCC3(CC2)COCc2ccccc23)cc1 [Compound 2f],0.95
14,"Fc1ccc(C2CCN(CCCCCCc3c[nH]c4ccccc34)CC2)cc1 [Compound 2ff, 3-[6-(4-(4-Fluorophenyl)-1-piperidinyl)-1-hexyl]indole]",0.43
15,"c1ccc(CCCCN2CCC3(CC2)Cc2ccccc2CO3)cc1 [Compound 2g, 1,4-Dihydro-1'-(4-phenyl-1-butyl)spiro[3H-2-benzopyran-3,4'-piperidine]]",0.36
16,"COc1ccccc1C1CCN(CCCCc2c[nH]c3ccccc23)CC1 [Compound 2gg, 3-[4-(4-(2-Methoxyphenyl)-1-piperidinyl)-1-butyl]indol]",3.3
17,"c1ccc(CCCCN2CCC3(CCc4ccccc4O3)CC2)cc1 [Compound 2h, 3,4-Dihydro-1'-(4-phenyl-1-butyl)spiro[2H-1-benzopyran-2,4'-piperidine]]",1.4
18,"c1ccc(Cn2cc(CCCCN3CCC4(CC3)OCc3ccccc34)c3ccccc32)cc1 [Compound 2hh, 1'-[4-(1-Benzyl-3-indolyl)-1-butyl]-spiro[isobenzofuran-1(3h),4'-piperidine]]",0.02
19,"C1=CC2(CCN(CCCCc3ccccc3)CC2)Oc2ccccc21 [Compound 2i, 1'-(4-Phenyl-1-butyl)spiro[2H-1-benzopyran-2,4'-piperidine]]",4.3
20,"O=C1Nc2ccccc2C1CCCCN1CCC(c2ccc(F)cc2)CC1 (centres unmarked) [Compound 2ii, 3-[4-(4-(4-Fluorophenyl)-1-piperidyl)-1-butyl]indol-2-one]",5.8
21,"c1ccc2c(c1)COC21CCN(CCCOC2CCCCC2)CC1 [Compound 2j, 1'-(3-Cyclohexyloxy-1-propyl)spiro[isobenzofuran-1(3H),4'-piperidine]]",0.07

row,Compound,IC50 [nM]
1,"Fc1ccc2c(c1)C1(CCN(CCCCc3c[nH]c4ccccc34)CC1)OC2 [Compound 2jj, 6-Fluoro-1'-(4-(3-indolyl)-1-butyl)spiro[isobenzofuran-1(3H),4'-piperidine]]",1.4
2,"c1ccc(OCCCN2CCC3(CC2)OCc2ccccc23)cc1 [Compound 2k, 1'-(3-Phenoxy-1-propyl)spiro[isobenzofuran-1(3H),4'-piperidine]]",0.19
3,"c1ccc(OCCCN2CCC3(CC2)Cc2ccccc2CO3)cc1 [Compound 2l, 1'-(3-Phenoxy-1-propyl)spiro[3H-2-benzopyran-3,4'-piperidine]]",3.8
4,"CSCCCN1CCC2(CC1)OCc1ccccc12 [Compound 2n, 1'-(3-Methylthio-1-propyl)spiro[isobenzofuran-1(3H),4'-piperidine]]",6
5,"c1ccc(SCCCN2CCC3(CC2)OCc2ccccc23)cc1 [Compound 2p, 1'-(3-Phenylthio-1-propyl)spiro[isobenzofuran-1(3H),4'-piperidine]]",0.32
6,"O=S(=O)(CCCN1CCC2(CC1)OCc1ccccc12)C1CCCCC1 [Compound 2r, 1'-(3-Cyclohexylsulfonyl-1-propyl)spiro[isobenzofuran-1(3H),4'-piperidine]]",3
7,"O=S(=O)(CCCN1CCC2(CC1)OCc1ccccc12)c1ccccc1 [Compound 2s, 1'-(3-Phenylsulfonyl-1-propyl)spiro[isobenzofuran-1 (3H),4'-piperidine]]",3.1
8,"c1ccc(CCCCN2C3CCC2CC2(C3)OCc3ccccc32)cc1 (centres unmarked) [Compound 2t, 8'-(4-Phenyl-1-butyl)spiro[isobenzofuran-1(3H),3'-8-azabicyclo[3,2,1]octane]]",5.4
9,"c1ccc2c(c1)COC21CCN(CCCCc2c[nH]c3ccccc23)CC1 [Compound 2u, 1'-[4-(3-Indolyl)-1-butyl]-spiro[isobenzofuran-1(3H),4'-piperidine]]",0.41
10,"c1ccc2c(c1)COCC21CCN(CCCCc2c[nH]c3ccccc23)CC1 [Compound 2v, 1'-[4-(3-Indolyl)-1-butyl]-spiro[1H-2-benzopyran-4(3H),4'-piperidine]]",1.8
11,"c1ccc2c(c1)COCC21CCN(CCCCCc2c[nH]c3ccccc23)CC1 [Compound 2x, 1'-[5-(3-Indolyl)-1-pentyl]-spiro[1H-2-benzopyran-4(3H),4'-piperidine]]",1.6
12,"c1ccc2c(c1)COCC21CCN(CCCCCCc2c[nH]c3ccccc23)CC1 [Compound 2y, 1'-[6-(3-Indolyl)-1-hexyl]-spiro[1H-2-benzopyran-4(3H),4'-piperidine]]",0.84
13,"Clc1cc2[nH]cc(CCCCN3CCC4(CC3)OCc3ccccc34)c2cc1Cl [Compound 2z, 1'-[4-(5,6-Dichloro-3-indolyl)-1-butyl]-spiro[isobenzofuranr-1(3H) ,4'-piperidine]]",1.5
14,"O=C1N(CCCCN2CCC3(CC2)OCc2ccccc23)CCN1C1CCCCC1 [Compound 3a, 1'-(4-(3-Cyclohexylimidazolidin-2-on-1-yl)-1-butyl)spiro[isobenzofuran-1 (3H), 4'-piperidine]]",2.2
15,O=C1N(CCN2CCC3(CC2)OCc2ccccc23)CCN1c1ccccc1 [Compound 3b],4.8
16,O=C1N(CCCN2CCC3(CC2)OCc2ccccc23)CCN1c1ccccc1 [Compound 3c],1
17,"O=C1N(CCN2CCC3(CC2)OCc2ccccc23)CCN1C1CCCCC1 [Compound 3d, 1'-(2-(3-Cyclohexylimidazolidin-2-on-1-yl)-1-ethyl)spiro[isobenzofuran-1(3H),4'-piperidine)]",7.3
18,"CCCN1CCC2(CC1)OCc1ccccc12 [Compound 4a, 1'-Propyl-spiro[isobenzofuran-1(3H),4'-piperidine]]",23
19,"CC(C)CCCCN1CCC2(CC1)OCc1ccccc12 [Compound 4b, 1'-(5-Methyl-1-hexyl)-spiro[isobenzofuran-1(3H),4'-piperidine)]",0.53
20,"c1ccc(CCN2CCC3(CC2)OCc2ccccc23)cc1 [Compound 4c, 1'-(2-Phenyl-1-ethyl)-spiro[isobenzofuran-1(3h),4'-piperidine]]",2.9
